Reference: patent US7226932B2, “Self-emulsifying drug delivery system” (priority 1994, dated 2007)
Values after ≈ are worked out from the molar mass of the structure shown. Read-outs that look alike come from different tables or passages of the source.

Columns and labels:
HIV protease = HIV protease (Human immunodeficiency virus type 1 group M subtype B, UniProt P04585); test: IC50 and IC90 pharmaceutical plasma levels
[1] = Solubility in water and oil; type: physicochemical
[2] = Bioavailability measured in animals; type: in vivo
[3] = Oral administration to rats, plasma pharmacokinetics; type: in vivo; conditions: rat, suspension in tween 80, methylcellulose and water
Method: Rats: […] Three rats were administered with each dose vehicle. […] Plasma concentrations of the pharmaceutical were determined as previously described in the dog and the same pharmacokinetic parameters were determined.

For `CC(C)CN(C[C@@H](O)[C@H](Cc1ccccc1)NC(=O)[C@H](CC(N)=O)NC(=O)c1ccc2ccccc2n1)C(=O)NC(C)(C)C` [Example 1, N^1-[3-[N^2-[[(1,1-dimethylethyl)amino]carbonyl]-N^2-(2-methylpropyl)amino]-2(R)-hydroxy-1(S)-(phenylmethyl)propyl]-2(S)-[N^3-(2-quinolinylcarbonyl)amino]butanediamide], which melting point is on record?
The melting point was 107 to 109.8 °C.

And the IC50 (HIV protease)?
Its IC50 is 16.5 nM.

And the IC90 (HIV protease)?
Its IC90 is 0.1 µg/mL (≈ 0.165 µM).

What about the “dose to solubility ratio” value [1] of the same molecule?
Its value is > 75,000.

What about the solubility ([1]; oil, oil or lipid, read-out: solubility in oil) of the same molecule?
The solubility was < 1000 µg/mL.

And the solubility ([1]; water, read-out: solubility in water)?
The solubility was ~10 µg/mL (≈ 16.5 µM).

What about the bioavailability ([2]; in vivo, normal formulation methods, read-out: bioavailability) of the same molecule?
The bioavailability was < 1%.

And the bioavailability ([2]; measured in animals, without solubilizer)?
Its bioavailability is “very low”.

And the increase of bioavailability ([2]; utilizing a solubilizer in the dosage formulation)?
Its increase of bioavailability is 25–30 fold.

What about the bioavailability [3] of the same molecule?
Its bioavailability is ~1%.
